The values below are quoted from earlier work in patent US5945417A, “Heterocyclic compounds, their preparation and use” (priority 1995, dated 1999).

Data set [1] concerns release of dopamine in the rat brain. Conditions: literature.
Data set [2] concerns metabotropic glutamate receptors. The settings on record: literature.
The subject of the next data set is MCAO model in mice. The settings on record: literature.
A further data set has as its system nerve cell cultures. The settings on record: literature.
The next data set has as its system mGluR1α. Conditions: 1 mM quisqualate or glutamate; BHK cells expressing mGluR1α.
Data set [3] relates to trans ACPD stimulated phosphoinositide hydrolysis. Conditions: literature.
In a further data set the test system is control BHK cells. The settings on record: 1 mM quisqualate or glutamate.

With `N[C@@]1(C(=O)O)CC[C@@H](C(=O)O)C1` [Trans-ACPD, trans 1S,3R-1-aminocyclopentane-1,3-dicarboxylicacid], the “release of dopamine in the rat brain” value in data set [1] was “increase release of dopamine in the rat brain”. In data set [2], the “action on the metabotropic glutamate receptors” value (from here on “action”) is “selectively activated”. Moreover, the “neuroprotection in an MCAO model in mice” value with MCAO model in mice is recorded as “neuroprotective agent”. Further, the “inhibition of NMDA induced neurotoxicity” value in the data set on nerve cell cultures was “inhibit NMDA induced neurotoxicity”.

With `N[C@@H](CP(=O)(O)O)C(=O)O` [L-AP3, L-2-amino-3-phosphonopropionic acid], the “action” value in data set [2] was “partial agonist”.

As for `N[C@@H](CCC(=O)O)C(=O)O` [L-glutamate], in the data set on mGluR1α, the “fold increase over basal Pl-hydrolysis” value was 6-8 fold.

Turning to `C[C@@](N)(C(=O)O)c1ccc(C(=O)O)cc1` [S-MCPG, S-alpha methyl4-carboxyphenyl glycine], in data set [3], the “antagonism of trans ACPD stimulated phosphoinositide hydrolysis” value (shortened to “antagonism”) is reported as “antagonise trans ACPD stimulated phosphoinositide hydrolysis”.

As to `N[C@@H](Cn1oc(=O)[nH]c1=O)C(=O)O` [quisqualate], the “action” value in data set [2] is reported as “non-selective agonists”. Moreover, the “fold increase over basal Pl-hydrolysis” value with mGluR1α is recorded as 6-8 fold. The “stimulation in control BHK cells” value with control BHK cells was “no stimulation”.

On to `C=C(C)[C@H]1CN[C@H](C(=O)O)[C@H]1CC(=O)O` [kainate], for which, in data set [2], the “action” value is on record as “little effect”.

On to `CN[C@H](CC(=O)O)C(=O)O` [NMDA], for which the “action” value in data set [2] is recorded as “little effect”.

For the compound `NC(C(=O)O)c1cc(O)no1` (stereo not shown) [ibotenate], the “action” value in data set [2] is listed as “non-selective agonists”.

With `N[C@H](C(=O)O)c1ccc(C(=O)O)cc1` [Compound S-4CPG, S-4-carboxyphenyl glycine], the “antagonism” value in data set [3] is on record as “antagonise trans ACPD stimulated phosphoinositide hydrolysis”.

With `N[C@H](C(=O)O)c1ccc(C(=O)O)c(O)c1` [Compound S-4C3HPG, S-4-carboxy-3-hydroxyphenyl glycine], the “antagonism” value in data set [3] was “antagonise trans ACPD stimulated phosphoinositide hydrolysis”.

On to `Cc1onc(O)c1CC(N)C(=O)O` (stereo not shown) [AMPA], for which the “action” value in data set [2] is given as “little effect”.
